Values quoted from earlier work, collected in patent publication US20030083520A1, “Process for preparing bicyclic amino acid” (Pfizer Inc., priority 2001, published 2003).

Test system: α2δ subunit derived from porcine brain tissue
Conditions: [3H]gabapentin radioligand

Compound | α2δ binding affinity
NCC1(CC(=O)O)C[C@H]2CC[C@@H]2C1 (racemic) [(+/−)-(1α,5β)(3-Aminomethyl-bicyclo[3.2.0]hept-3-yl)-acetic acid] | 2.86 µM
NC[C@]1(CC(=O)O)C[C@H]2CC[C@H]2C1 [(1α,3α,5α)(3-aminomethyl-bicyclo[3.2.0]hept-3-yl)-acetic acid] | 0.038 µM
NC[C@@]1(CC(=O)O)C[C@H]2CC[C@H]2C1 [(1α,3β,5α)(3-Aminomethyl-bicyclo[3.2.0]hept-3-yl)-acetic acid] | 0.332 µM
